Experimental data taken from patent US4396613A, “23-Ester derivatives of DMT and method of using same” (Eli Lilly and Company, priority 1981, dated 1983).
Values after ≈ are worked out from the molar mass of the structure shown.

Key:
Format in all cases: cell-based
[1] = test system: Staphylococcus aureus X400; test: standard agar-dilution assay (MIC); conditions: Staphylococcus aureus X400, methicillin-resistant strain, unit assumed
Experimental: (§1) The MIC's in Table II were determined by standard agar-dilution assays. The MIC's in Table III were obtained using a conventional broth-dilution microtiter test.
^c Methicillinresistant-strain

[2] = test system: Streptococcus pneumoniae Park I; conditions: agar dilution, unit assumed
Experimental: as §1

[3] = test system: Staphylococcus aureus V41; test: standard agar-dilution assay (MIC); conditions: Staphylococcus aureus V41, penicillin-resistant strain, unit assumed
Experimental: as §1
^b Penicillinresistant strain

[4] = test system: Pasteurella multocida 17E; test: conventional broth-dilution microtiter test (MIC); conditions: bovine isolate, unit assumed
Experimental: as §1

[5] = test system: Pasteurella multocida 60A; test: conventional broth-dilution microtiter test (MIC); conditions: avian isolate, unit assumed
Experimental: as §1

Mycoplasma synoviae = test: conventional broth-dilution microtiter test (MIC); conditions: unit assumed
Experimental: as §1

Mycoplasma hyorhinis = test: conventional broth-dilution microtiter test (MIC); conditions: unit assumed
Experimental: as §1

Mycoplasma gallisepticum = test: conventional broth-dilution microtiter test (MIC); conditions: unit assumed
Experimental: as §1

Streptococcus sp. 80 = test: conventional broth-dilution microtiter test (MIC); conditions: unit assumed
Experimental: as §1

[6] = test system: Streptococcus pyogenes C203; test: standard agar-dilution assay (MIC); conditions: unit assumed
Experimental: as §1

[7] = test system: Streptococcus Group D X66; test: standard agar-dilution assay (MIC); conditions: unit assumed
Experimental: as §1

[8] = test system: Staphylococcus aureus S13E; test: standard agar-dilution assay (MIC); conditions: unit assumed
Experimental: as §1

[9] = test system: Staphylococcus aureus X1.1; test: standard agar-dilution assay (MIC); conditions: unit assumed
Experimental: as §1

[10] = test system: Haemophilus influenzae R252; test: standard agar-dilution assay (MIC); conditions: Haemophilus influenzae R252, ampicillin-resistant strain, unit assumed
Experimental: as §1

Streptococcus Group 9960 = test: standard agar-dilution assay (MIC); conditions: unit assumed
Experimental: as §1

[11] = test system: Haemophilus influenzae Holt; test: standard agar-dilution assay (MIC); conditions: ampicillin-sensitive strain, unit assumed
Experimental: as §1

[12] = test system: Staphylococcus epidermidis EPI2; test: standard agar-dilution assay (MIC); conditions: unit assumed
Experimental: as §1

[13] = test system: Staphylococcus epidermidis EPI1; test: standard agar-dilution assay (MIC); conditions: unit assumed
Experimental: as §1

Staphylococcus aureus = test: conventional broth-dilution microtiter test (MIC); conditions: unit assumed
Experimental: as §1

Row | Compound | MIC [1] [µg/mL] | MIC [2] [µg/mL] | MIC [3] [µg/mL] | MIC [4] [µg/mL] | MIC [5] [µg/mL] | MIC (Mycoplasma synoviae) [µg/mL] | MIC (Mycoplasma hyorhinis) [µg/mL] | MIC (Mycoplasma gallisepticum) [µg/mL] | MIC (Streptococcus sp. 80) [µg/mL] | MIC [6] [µg/mL] | MIC [7] [µg/mL] | MIC [8] [µg/mL] | MIC [9] [µg/mL] | MIC [10] [µg/mL] | MIC (Streptococcus Group 9960) [µg/mL] | MIC [11] [µg/mL] | MIC [12] [µg/mL] | MIC [13] [µg/mL] | MIC (Staphylococcus aureus) [µg/mL]
1 | CCC(=O)OCC1C=C(C)C=CC(=O)C(C)CC(CC=O)C(OC2OC(C)C(OC3CC(C)(O)C(O)C(C)O3)C(N(C)C)C2OC(C)=O)C(C)C(O)CC(=O)OC1CC (stereo not shown) [Compound 5, 2'-O-Acetyl-23-O-propionyl DMT] | 1 (≈ 1.19 µM) | 0.5 (≈ 0.595 µM) | 0.5 (≈ 0.595 µM) | 6.25 (≈ 7.44 µM) | 12.5 (≈ 14.9 µM) | 0.097 (≈ 0.115 µM) | 1.56 (≈ 1.86 µM) | ≤ 0.024 | ≤ 0.78 | 0.5 (≈ 0.595 µM) | 1 (≈ 1.19 µM) | 1 (≈ 1.19 µM) | 0.5 (≈ 0.595 µM) | 32 (≈ 38.1 µM) | 1 (≈ 1.19 µM) | 16 (≈ 19 µM) | 1 (≈ 1.19 µM) | 1 (≈ 1.19 µM) | 
2 | CCC(=O)OC1C(OC2C(CC=O)CC(C)C(=O)C=CC(C)=CC(COC(C)=O)C(CC)OC(=O)CC(O)C2C)OC(C)C(OC2CC(C)(O)C(O)C(C)O2)C1N(C)C (stereo not shown) [Compound 6, 23-O-Acetyl-2'-O-propionyl-DMT] | 2 (≈ 2.38 µM) | 0.125 (≈ 0.149 µM) | 0.5 (≈ 0.595 µM) | 6.25 (≈ 7.44 µM) | 12.5 (≈ 14.9 µM) | 0.195 (≈ 0.232 µM) | 0.78 (≈ 0.929 µM) | 0.39 (≈ 0.464 µM) | 0.39 (≈ 0.464 µM) | 0.5 (≈ 0.595 µM) | 1 (≈ 1.19 µM) | 1 (≈ 1.19 µM) | 0.5 (≈ 0.595 µM) | 16 (≈ 19 µM) | 1 (≈ 1.19 µM) | 16 (≈ 19 µM) | 1 (≈ 1.19 µM) | 1 (≈ 1.19 µM) | 0.78 (≈ 0.929 µM)
3 | CCCCCCCC(=O)OCC1C=C(C)C=CC(=O)C(C)CC(CC=O)C(OC2OC(C)C(OC3CC(C)(O)C(O)C(C)O3)C(N(C)C)C2OC(C)=O)C(C)C(O)CC(=O)OC1CC (stereo not shown) [Compound 7] | 4 (≈ 4.39 µM) | 0.5 (≈ 0.549 µM) | 2 (≈ 2.2 µM) | > 50 | > 50 | 12.5 (≈ 13.7 µM) | 6.25 (≈ 6.87 µM) | 1.56 (≈ 1.71 µM) | 1.56 (≈ 1.71 µM) | 0.5 (≈ 0.549 µM) | 2 (≈ 2.2 µM) | 2 (≈ 2.2 µM) | 2 (≈ 2.2 µM) |  | 2 (≈ 2.2 µM) |  | 4 (≈ 4.39 µM) | 2 (≈ 2.2 µM) | 1.56 (≈ 1.71 µM)
4 | CCC1OC(=O)CC(O)C(C)C(OC2OC(C)C(OC3CC(C)(O)C(O)C(C)O3)C(N(C)C)C2OC(C)=O)C(CC=O)CC(C)C(=O)C=CC(C)=CC1COC(=O)C(C)(C)C (stereo not shown) [Compound 8] | 1 (≈ 1.15 µM) | 0.06 (≈ 0.0691 µM) | 0.5 (≈ 0.576 µM) | 12.5 (≈ 14.4 µM) | 12.5 (≈ 14.4 µM) | 0.39 (≈ 0.449 µM) | 3.12 (≈ 3.59 µM) | 0.39 (≈ 0.449 µM) | > 0.78 | 0.25 (≈ 0.288 µM) | 0.5 (≈ 0.576 µM) | 0.5 (≈ 0.576 µM) | 0.5 (≈ 0.576 µM) | 4 (≈ 4.61 µM) | 0.5 (≈ 0.576 µM) | 16 (≈ 18.4 µM) | 1 (≈ 1.15 µM) | 0.5 (≈ 0.576 µM) | 3.12 (≈ 3.59 µM)
5 | CCC1OC(=O)CC(O)C(C)C(OC2OC(C)C(OC3CC(C)(O)C(O)C(C)O3)C(N(C)C)C2OC(C)=O)C(CC=O)CC(C)C(=O)C=CC(C)=CC1COC(=O)Cc1ccccc1 (stereo not shown) [Compound 9, 2'-O-Acetyl-23-O-phenylacetyl-DMT] | 0.5 (≈ 0.554 µM) | 0.015 (≈ 0.0166 µM) | 0.5 (≈ 0.554 µM) | 3.12 (≈ 3.46 µM) | 6.25 (≈ 6.93 µM) |  | 0.78 (≈ 0.865 µM) | ≤ 0.048 | ≤ 0.048 | 0.125 (≈ 0.139 µM) | 0.5 (≈ 0.554 µM) | 0.5 (≈ 0.554 µM) | 0.5 (≈ 0.554 µM) | 4 (≈ 4.43 µM) | 0.25 (≈ 0.277 µM) | 4 (≈ 4.43 µM) | 0.5 (≈ 0.554 µM) | 0.5 (≈ 0.554 µM) | 0.195 (≈ 0.216 µM)
6 | CCC1OC(=O)CC(O)C(C)C(OC2OC(C)C(OC3CC(C)(O)C(O)C(C)O3)C(N(C)C)C2OC(C)=O)C(CC=O)CC(C)C(=O)C=CC(C)=CC1COC(=O)COc1ccccc1 (stereo not shown) [Compound 12, 2'-O-Acetyl-23-O-phenoxyacetyl-DMT] | 0.5 (≈ 0.545 µM) |  | 0.25 (≈ 0.272 µM) | 6.25 (≈ 6.81 µM) | 6.25 (≈ 6.81 µM) | 0.78 (≈ 0.85 µM) | 6.25 (≈ 6.81 µM) | 0.097 (≈ 0.106 µM) | 0.195 (≈ 0.212 µM) | 0.125 (≈ 0.136 µM) | 0.5 (≈ 0.545 µM) | 0.5 (≈ 0.545 µM) | 0.25 (≈ 0.272 µM) | 8 (≈ 8.71 µM) | 0.5 (≈ 0.545 µM) | 16 (≈ 17.4 µM) | 0.5 (≈ 0.545 µM) | 0.5 (≈ 0.545 µM) | 0.39 (≈ 0.425 µM)
